Results taken from patent US20060281791A1, “Methods of increasing proliferation of adult mammalian cardiomyocytes through p38 map kinase inhibition” (CHILDREN'S MEDICAL CENTER CORPORATION, priority 2005, published 2006).

What was measured:
p38 MAP kinase = details: cited from earlier work
[1] = test system: neonatal (P2) cardiomyocytes; experiment: Induction of DNA synthesis (BrdU incorporation) in neonatal cardiomyocytes; assay type: cell-based, rat; details: BrdU labeling period 24 to 72 hours; harvested after 72 hours; optimal concentration of stimulus
Description: Animal experiments were performed in accordance with guidelines of Children's Hospital, Boston and UCLA. Ventricular cardiomyocytes from fetal (E19), 2-day-old (P2) and adult (250-350 g) Wistar rats (Charles River) were isolated as described with minor modifications (Engel et al. 1999; Engel et al. 2003). After digestion of fetal or neonatal hearts (0.14 mg/ml collagenase II (Invitrogen), 0.55 mg/ml pancreatin (Sigma)) cells were cultured in DMEM/F12 (GIBCO) containing 3 mM Na-pyruvate, 0.2% BSA, 0.1 mM ascorbic acid (Sigma), 0.5% Insulin-Transferrin-Selenium (100×), penicillin (100 U/ml), streptomycin (100 μg/ml), and 2 mM L-glutamine (GIBCO). Adult cardiomyocytes were cultured for 1 day in standard medium (DMEM, 25 mM Hepes, 5 mM taurine, 5 mM creatine, 2 mM L-carnitine (Sigma), 20 U/ml insulin (GIBCO), 0.2% BSA, penicillin (100 U/ml), and streptomycin (100 μg/ml)). Cells were stimulated in culture medium without BSA containing 2 mM L-glutamine. Neonatal and adult cardiomyocytes were initially cultured for 48 h in the presence of 20 μM cytosine β-D-arabinofuranoside (araC, Sigma) and 5% horse serum before stimulation to prevent proliferation of non-myocytes. Adult cardiomyocytes were incubated another 3 days with araC during stimulation. Neonatal cardiomyocytes were stimulated every day with growth factors for BrdU and H3P analyses (FGF1 and NRG-1-1β at 50 ng/ml, IL-1β at 100 ng/ml, R&D Systems, all diluted in 0.1% BSA/PBS). SB203580 and LY294002 (Calbiochem) was added every day. Adult cardiomyocytes were stimulated with fresh medium and SB203580 every 3 days.
Staining was performed as described (Supplemental Table S3) (Engel et al. 1999; Engel et al. 2003). Immune complexes were detected with ALEXA 350, ALEXA 488 or ALEXA 594-conjugated secondary antibodies (1:200, Molecular Probes). DNA was visualised with DAPI (4′,6′-diamidino-2-phenylindole, 0.5 μg/ml, Sigma). For BrdU, cells were cultured in 30 μM BrdU, incubated after permeabilization for 90 min in 2N HCl/1% triton X-100 and washed 3 times in PBS.
Eighteen to 40 hearts of 3 different litters were used for quantitative analyses of maximal areas. For immunofluorescence analyses 1,500 fetal or neonatal cardiomyocytes were counted. For adult cardiomyocyte analyses in vitro the following number of cells were counted: 500-2,000 for BrdU or Ki67, 9,000-25,000 for H3P, and 12,000-45,000 for aurora B. For in vivo MKK3bE and p38α knockout experiments 2 different litters were used. We counted 1,500-2,000 cells in each apex, left and right ventricle per heart. For adult experiments we analyzed 2 p38α^Δ/Δ and 2 p38^lox/lox hearts (24 sections each). Statistical significance was determined using Student's t test.
Several growth factors have a limited capacity to induce DNA synthesis in neonatal cardiomyocytes, including FGF1 (Pasumarthi and Field 2002). We screened 45 extracellular factors at two different concentrations for their ability to induce BrdU incorporation in neonatal (P2) cardiomyocytes. […] We confirmed previous studies showing that FGF1, IL-1β, and NRG-1-β1 are potent growth factors for neonatal cardiomyocytes (Supplemental Table S2) (Pasumarthi and Field 2002 Circ Res 90: 1044-54).
Inhibition of p38 activity by SB203580 increased BrdU incorporation 2.8-fold in neonatal cardiomyocytes stimulated with FGF1 (p<0.01). Similar results were obtained after stimulation with IL-1β and NRG-1-β1. Thus, inhibition of p38 activity augments growth factor-mediated DNA synthesis in neonatal cardiomyocytes.

JNK = details: cited from earlier work
ERK = details: cited from earlier work
[2] = test system: LPS-stimulated human peripheral blood monocytes; details: cited from earlier work
[3] = cited from earlier work
[4] = test system: myocardial infarction in adult rats; experiment: Fractional shortening (echocardiography) after myocardial infarction; assay type: in vivo, rat
Description: The p38 inhibitors were tested for in vivo effect following myocardial infarct. For the evaluation of left ventricular function, transthoracic echocardiogram can be performed on the rats after myocardial infarction 1 day or 14 days right. Rats can be anesthetized with 4-5% isoflurane in an induction chamber. The chest can be shaved, and the rats can be placed in dorsal decubitus position and intubated for continuous ventilation. 1-2% isoflurane can be continuously supplied via a mask. 3 electrodes can be adhered to their paws to record the electrocardiographic tracing simultaneously with the cardiac image identifying the phase of a cardiac cycle.
Echocardiograms can be performed with a commercially available echocardiography system equipped with 7.5 MHz phased-array transducer (Philips-Hewlett-Packard). The transducer can be positioned on the left anterior side of the chest. Longitudinal images of the heart can be obtained, including the left ventricle, atrium, the mitral valve and the aorta, followed by the cross-sectional images from the plane of the base to the left ventricular apical region. M-mode tracings can be obtained at the level below the tip of the mitral valve leaflets at the level of the papillary muscles. Fractional shorting (FS) can be calculated as a measure of systolic function, according to the M-mode tracing from the cross-sectional view: maximal LV end-diastolic diameter (at the time of maximal cavity dimension), minimal LV end-systolic diameter (at the time of maximum anterior motion of the posterior wall), FS (%)={(LVEDD−LVESD)/LVEDD}×100.
To determine whether p38 inhibition/FGF1 stimulation can induce cardiomyocyte proliferation in vivo and whether it has a positive effect on cardiac function after cardiac injury we created myocardial infarctions (MI) in adult rats (250 g) by coronary artery ligation. The p38 inhibitor SB203580 HCl or its vehicle, saline, were injected intraperitoneal every three days for the first month of the study. FGF1 or its carrier BSA was injected mixed with self-assembling peptides once into the infarct border zone immediately after coronary artery ligation. We injecting a total of 80 μl of 400 ng/ml FGF1, given at 3 different injection sites, into 400 mg of infarcted myocardium estimated to deliver a FGF 1 concentration to the cardiomyocytes of approximately 50 to 100 ng/ml. Animals were analyzed 24 hours, 2 weeks, and 3 month after surgery. We performed two blinded and randomized studies using 62 rats for the 2 week and 61 rats for the 3 month experiment, with at least 10 animals in each experimental group. Animals were treated with saline plus BSA (control), SB203580 HCl plus BSA (p38i), saline plus FGF1 (FGF1), or SB203580 HCl plus FGF1 (p38i/FGF1).
Animal experiments were performed in accordance with guidelines of Children's Hospital in Boston and were approved by the Harvard Medical School Standing Committee on Animals. Myocardial infarction (MI) was produced in ˜250 gm male Sprague-Dawley rats (Charles River and Harlan) as described previously (Hsieh et al., 2006). Briefly, rats were anesthetized by pentobarbital and, following tracheal intubation, the hearts were exposed via left thoracotomy. The left coronary artery was identified after pericardiotomy and was ligated by suturing with 6-0 prolene at the location ˜3mm below the left atrial appendix. For the sham operation, suturing was performed without ligation. […]

CCc1nc(-c2ccc(OC)cc2)[nH]c1-c1ccncc1 [SB202474]
p38 MAP kinase inhibition (in words) (p38 MAP kinase): inactive

FGF2
% of BrdU positive neonatal cardiomyoctes [1]: 22.2 ± 1.8%

COc1nccc(-c2c(-c3ccc(F)cc3)ncn2[C@H]2CC[C@H](O)CC2)n1 [SB239063]
selectivity over JNK (JNK): > 200 fold
selectivity over ERK (ERK): > 200 fold
p38 MAP kinase inhibition (in words) (p38 MAP kinase): potent
IL-1 and TNF-β production [2]: inhibits

TGFβ1
% of BrdU positive neonatal cardiomyoctes [1]: 17.4 ± 2.2%

IL-1β
% of BrdU positive neonatal cardiomyoctes [1]: 41.3 ± 3.2%

C[S+]([O-])c1ccc(-c2nc(-c3ccc(F)cc3)c(-c3ccncc3)[nH]2)cc1.Cl (stereo not shown) [SB203580 HCl]
water solubility [3]: water insoluble
improvement of fractional shortening ([4]; 3 month after infarction): maintained
improvement of fractional shortening ([4]; day 14 after infarction): maintained

CNC[C@H](O)c1cccc(O)c1 [PE]
% of BrdU positive neonatal cardiomyoctes [1]: 23.7 ± 3.1%

B1: CT-1 (protein, UniProt Q16619 1-201, looked up)
Cardiotrophin-1: MSRREGSLEDPQTDSSVSLLPHLEAKIRQTHSLAHLLTKYAEQLLQEYVQLQGDPFGLPSFSPPRLPVAGLSAPAPSHAGLPVHERLRLDAAALAALPPLLDAVCRRQAELNPRAPRLLRRLEDAARQARALGAAVEALLAALGAANRGPRAEPPAATASAASATGVFPAKVLGLRVCGLYREWLSRTEGDLGQLLPGGSA
% of BrdU positive neonatal cardiomyoctes [1]: 11.2 ± 1.1%

B2: FGF6 (protein, UniProt P10767 38-208, looked up)
Fibroblast growth factor 6: SPAGTRANNTLLDSRGWGTLLSRSRAGLAGEIAGVNWESGYLVGIKRQRRLYCNVGIGFHLQVLPDGRISGTHEENPYSLLEISTVERGVVSLFGVRSALFVAMNSKGRLYATPSFQEECKFRETLLPNNYNAYESDLYQGTYIALSKYGRVKRGSKVSPIMTVTHFLPRI
% of BrdU positive neonatal cardiomyoctes [1]: 47.3 ± 3.3%

B3: FGF4 (protein, UniProt P08620 31-206, looked up)
Fibroblast growth factor 4: APTAPNGTLEAELERRWESLVALSLARLPVAAQPKEAAVQSGAGDYLLGIKRLRRLYCNVGIGFHLQALPDGRIGGAHADTRDSLLELSPVERGVVSIFGVASRFFVAMSSKGKLYGSPFFTDECTFKEILLPNNYNAYESYKYPGMFIALSKNGKTKKGNRVSPTMKVTHFLPRL
% of BrdU positive neonatal cardiomyoctes [1]: 46.5 ± 3.9%

B4: FGF17 (protein, UniProt O60258 23-216, looked up)
Fibroblast growth factor 17: TQGENHPSPNFNQYVRDQGAMTDQLSRRQIREYQLYSRTSGKHVQVTGRRISATAEDGNKFAKLIVETDTFGSRVRIKGAESEKYICMNKRGKLIGKPSGKSKDCVFTEIVLENNYTAFQNARHEGWFMAFTRQGRPRQASRSRQNQREAHFIKRLYQGQLPFPNHAEKQKQFEFVGSAPTRRTKRTRRPQPLT
% of BrdU positive neonatal cardiomyoctes [1]: 31.1 ± 1.7%
